Measurements reported in patent US20260158156A1, “SPECIFIC CONJUGATION OF AN ANTIBODY” (priority 2021, published 2026).

Test system: 8226-2A1 cells
Test: MTT in vitro cytotoxicity assay of BCMA antibody conjugates, 8226-2A1
Type: cell-based
Details: 15000 cells, 96 h incubation
Method: The cell lines used in the cytotoxicity assays were (1). […] To run the assay, the cells (180 μl, 6000 cells) were added to each well in a 96-well plate and incubated for 24 hours at 37° C. with 5% CO2. Next, the cells were treated with test compounds (20 μl) at various concentrations in appropriate cell culture medium (total volume, 0.2 mL). The control wells contain cells and the medium but lack the test compounds. […] MTT (5 mg/mL) was then added to the wells (20 μl) and the plates were incubated for 1.5 hr at 37° C. The medium was carefully removed and DMSO (180 μl) was added afterward. After it was shaken for 15 min, the absorbance was measured at 490 nm and 570 nm with a reference filter of 620 nm. The inhibition % was calculated according to the following equation: inhibition %=[1−(assay-blank)/(control-blank)]×100.

CC(=O)O[C@H]1C(=O)[C@@]2(C)[C@H]([C@H](OC(=O)c3ccccc3)[C@]3(O)C[C@H](OC(=O)[C@H](O)[C@@H](NC(=O)c4ccccc4)c4ccccc4)C(C)=C1C3(C)C)[C@]1(OC(C)=O)CO[C@@H]1C[C@@H]2O [Paclitaxel]
IC50: 3.71 nM
